# Measurements from ChEMBL document CHEMBL1132082, “Nonsteroidal androgen receptor agonists based on 4-(trifluoromethyl)-2H-pyrano[3,2-g]quinolin-2-one” (Bioorg Med Chem Lett, 1999).
# Legend:
# Estrogen receptor = Estrogen receptor (Homo sapiens, UniProt Q92731+P03372); experiment: In vitro antagonistic activity against human estrogen receptor (hER); assay type: functional
# [1] = biological target: T1, Mineralocorticoid receptor (Homo sapiens, UniProt P08235); experiment: In vitro antagonistic activity against human mineralocorticoid receptor (hMR); not active; assay type: functional
# T1 sequence (P08235 whole entry): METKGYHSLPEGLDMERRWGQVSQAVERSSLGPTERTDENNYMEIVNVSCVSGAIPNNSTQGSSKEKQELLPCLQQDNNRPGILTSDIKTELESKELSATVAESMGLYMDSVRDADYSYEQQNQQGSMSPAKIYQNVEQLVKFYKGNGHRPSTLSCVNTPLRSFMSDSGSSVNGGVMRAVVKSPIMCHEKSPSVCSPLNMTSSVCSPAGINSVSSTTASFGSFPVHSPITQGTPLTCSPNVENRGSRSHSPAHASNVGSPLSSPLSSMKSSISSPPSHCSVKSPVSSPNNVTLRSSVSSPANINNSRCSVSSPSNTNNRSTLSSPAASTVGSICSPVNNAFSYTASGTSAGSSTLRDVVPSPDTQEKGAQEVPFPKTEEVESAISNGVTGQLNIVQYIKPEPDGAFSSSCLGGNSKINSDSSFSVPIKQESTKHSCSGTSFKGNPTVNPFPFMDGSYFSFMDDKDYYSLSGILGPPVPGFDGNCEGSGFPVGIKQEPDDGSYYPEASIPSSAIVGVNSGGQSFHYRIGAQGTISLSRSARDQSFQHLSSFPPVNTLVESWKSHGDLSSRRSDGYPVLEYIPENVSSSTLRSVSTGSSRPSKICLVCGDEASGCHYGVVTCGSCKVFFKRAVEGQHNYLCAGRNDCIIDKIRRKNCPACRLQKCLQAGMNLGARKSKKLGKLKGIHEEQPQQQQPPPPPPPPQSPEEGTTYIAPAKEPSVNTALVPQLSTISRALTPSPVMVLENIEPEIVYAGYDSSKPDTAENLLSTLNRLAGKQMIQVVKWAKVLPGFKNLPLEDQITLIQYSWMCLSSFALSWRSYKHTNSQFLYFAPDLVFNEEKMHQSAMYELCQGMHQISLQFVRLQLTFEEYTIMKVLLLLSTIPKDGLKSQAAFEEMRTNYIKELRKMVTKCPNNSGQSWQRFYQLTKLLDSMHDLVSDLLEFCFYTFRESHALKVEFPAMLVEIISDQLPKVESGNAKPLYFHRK
# [2] = biological target: T2, Mineralocorticoid receptor (Homo sapiens) (UniProt P08235); experiment: In vitro antagonistic activity against human mineralocorticoid receptor (hMR); assay type: functional
# T2 sequence (whole entry): T1 sequence (P08235 whole entry)
# Progesterone receptor = biological target: T3, Progesterone receptor (Homo sapiens, UniProt P06401); experiment: In vitro antagonistic activity against human progesterone receptor (hPR); assay type: functional
# T3 sequence (P06401 whole entry): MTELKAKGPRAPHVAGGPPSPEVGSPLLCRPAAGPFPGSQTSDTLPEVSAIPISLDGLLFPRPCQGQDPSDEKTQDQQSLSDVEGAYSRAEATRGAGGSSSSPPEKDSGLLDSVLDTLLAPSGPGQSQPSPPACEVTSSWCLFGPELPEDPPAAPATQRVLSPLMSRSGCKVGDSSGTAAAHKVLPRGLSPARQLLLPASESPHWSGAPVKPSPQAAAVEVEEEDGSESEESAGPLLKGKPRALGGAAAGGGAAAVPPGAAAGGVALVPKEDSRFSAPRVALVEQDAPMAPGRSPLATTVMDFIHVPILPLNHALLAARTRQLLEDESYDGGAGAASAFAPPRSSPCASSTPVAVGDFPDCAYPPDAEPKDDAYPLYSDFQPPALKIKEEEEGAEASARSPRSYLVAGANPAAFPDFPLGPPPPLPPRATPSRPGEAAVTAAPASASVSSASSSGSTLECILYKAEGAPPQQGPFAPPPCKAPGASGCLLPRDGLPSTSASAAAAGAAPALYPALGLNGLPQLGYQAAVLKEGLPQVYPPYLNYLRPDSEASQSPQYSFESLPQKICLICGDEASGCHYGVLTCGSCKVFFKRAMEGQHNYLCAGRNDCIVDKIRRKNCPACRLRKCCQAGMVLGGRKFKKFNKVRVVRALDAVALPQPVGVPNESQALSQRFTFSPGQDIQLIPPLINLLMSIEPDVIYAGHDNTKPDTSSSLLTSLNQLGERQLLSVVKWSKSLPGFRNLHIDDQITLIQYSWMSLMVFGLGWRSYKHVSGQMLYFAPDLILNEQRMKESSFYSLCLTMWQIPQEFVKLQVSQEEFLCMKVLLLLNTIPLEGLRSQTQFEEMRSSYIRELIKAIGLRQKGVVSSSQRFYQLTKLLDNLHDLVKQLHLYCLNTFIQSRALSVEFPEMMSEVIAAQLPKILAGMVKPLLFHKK
# Androgen receptor = biological target: T4, Androgen receptor (Homo sapiens, UniProt P10275); experiment: biochemical
# T4 sequence (P10275 whole entry): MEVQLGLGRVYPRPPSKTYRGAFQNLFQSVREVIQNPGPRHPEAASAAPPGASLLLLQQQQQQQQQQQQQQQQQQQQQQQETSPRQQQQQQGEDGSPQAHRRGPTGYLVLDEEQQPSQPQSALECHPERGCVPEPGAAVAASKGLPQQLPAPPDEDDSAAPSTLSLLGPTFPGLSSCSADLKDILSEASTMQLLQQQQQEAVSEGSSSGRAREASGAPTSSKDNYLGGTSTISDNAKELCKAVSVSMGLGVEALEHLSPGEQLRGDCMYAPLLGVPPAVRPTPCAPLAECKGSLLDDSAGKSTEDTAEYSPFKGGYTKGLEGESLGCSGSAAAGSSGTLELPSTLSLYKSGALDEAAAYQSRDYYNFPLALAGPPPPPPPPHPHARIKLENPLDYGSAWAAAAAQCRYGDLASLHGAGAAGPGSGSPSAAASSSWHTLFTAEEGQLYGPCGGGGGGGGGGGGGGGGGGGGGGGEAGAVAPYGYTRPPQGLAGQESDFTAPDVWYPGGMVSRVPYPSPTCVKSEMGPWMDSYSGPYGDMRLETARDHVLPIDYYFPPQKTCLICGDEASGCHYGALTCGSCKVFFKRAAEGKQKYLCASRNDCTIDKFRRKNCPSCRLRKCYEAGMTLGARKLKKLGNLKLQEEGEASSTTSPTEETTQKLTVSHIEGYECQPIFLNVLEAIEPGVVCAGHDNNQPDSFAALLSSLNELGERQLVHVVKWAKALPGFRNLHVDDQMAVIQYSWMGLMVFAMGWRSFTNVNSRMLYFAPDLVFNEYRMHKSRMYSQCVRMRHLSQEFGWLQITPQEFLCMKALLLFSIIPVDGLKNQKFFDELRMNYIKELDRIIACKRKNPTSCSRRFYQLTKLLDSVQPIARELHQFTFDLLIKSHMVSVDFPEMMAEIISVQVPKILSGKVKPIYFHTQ
# Description: In vitro binding affinity at human androgen receptor transfected into COS cells.
SMILES,Efficacy (Estrogen receptor) [%],IC50 [1] [µM],Efficacy [2] [%],IC50 (Progesterone receptor) [µM],IC50 (Androgen receptor) [µM]
CCCC1CCNc2cc3oc(=O)cc(C(F)(F)F)c3cc21 (stereo not given),< 20,> 10,< 20,0.106,0.005
O=c1cc(C(F)(F)F)c2cc3c(cc2o1)NCCC3C(F)(F)F (stereo not given),< 20,> 10,< 20,0.27,0.002
CCC1Nc2cc3oc(=O)cc(C(F)(F)F)c3cc2CC1C (stereo not given),< 20,> 10,< 20,0.44,0.007
CCC1CCNc2cc3oc(=O)cc(C(F)(F)F)c3cc21 (stereo not given),< 20,> 10,< 20,0.2,0.001
CC1CCNc2cc3oc(=O)cc(C(F)(F)F)c3cc21 (stereo not given),< 20,> 10,< 20,0.28,0.001
